From patent US7829591B2, “Flavanone compound and uses thereof” (Pokka Corporation, priority 2003, dated 2010)

Legend:
[1] = DPPH radical scavenging activity test; assay type: biochemical; details: 25 μM sample solution in ethanol, 1 h in dark, absorbance 517 nm; average ± SD of three runs
Description: DPPH (α,α-diphenyl-β-picrylhydradil) is a purple stable radical having a maximum absorption at 517 nm, which is converted into colorless hydrazine by gaining hydrogen. This color reaction was utilized so as to determine the radical scavenging activity of each of Compounds 1 to 4 and the like. That is, each of Compounds 1 to 4 was dissolved in ethanol to prepare 3 ml of a sample solution having a concentration of 25 μM. Thereafter, to each of the resultant sample solutions, 0.75 ml of a 0.5 mM DPPH solution (whose solvent was ethanol) was added and stirred, and reacted in a dark place for one hour, followed by the determination of an absorbance at 517 nm. Furthermore, in place of Compounds 1 to 4, BHT (butylated hydroxytoluene), α-tocopherol or eriodictyol was used so as to determine an absorbance according to a similar procedure to the above. Besides, instead of the above sample solutions, ethanol was used as a control so as to determine an absorbance according to a similar procedure to the above. Then the radical scavenging activity (%) of each of the materials was calculated using the following calculation formula 1. Incidentally, each of values shown in Table 1 is the average value and standard deviation of values obtained from three runs. (Radical Scavenging Activity)=[{(Absorbance of Control)−(Absorbance of Sample Solution)}/(Absorbance of Control)]×100 Calculation Formula 1

β-carotene fading test = assay type: biochemical; details: 20 μM in reaction liquid, 60° C. for 60 minutes, absorbance 470 nm; average ± SD of three runs
Description: β-carotene will fade due to the reaction of linoleic acid peroxide, which is produced by the autoxidation of linoleic acid, with a double bond in β-carotene. This phenomenon was utilized so as to determine the antioxidant activity of each of Compounds 1 to 4 and the like. That is, first of all, 2 ml of a 200 mg/ml solution of Tween-40 in chloroform, 0.4 ml of a 100 mg/ml solution of linoleic acid in chloroform, and 3 ml of a 0.1 mg/ml solution of β-carotene in chloroform were mixed, and thereafter the solvent was removed by using a nitrogen gas. Subsequently, 100 ml of distilled water was added thereto, and adequately stirred to obtain an emulsion. To 3 ml of this emulsion, ethanol was added to completely dissolve the solute in the solvent. Thereafter, each of Compounds 1 to 4 was dissolved in ethanol so as to prepare a sample solution having a concentration of 1.2 mM. 50 μl of the sample solution was mixed with the above emulsion wherein the solute had been completely dissolved so as to prepare a reaction liquid (or a sample reaction liquid). Then the concentration of each of Compounds 1 to 4 in the reaction liquid was 20 μM. The reaction liquid was incubated at 60° C. for 60 minutes. Then the absorbance of each of the reaction liquid before the incubation and the reaction liquid after the incubation was determined at 470 nm. Furthermore, BHT, α-tocopherol, or eriodictyol was used in place of Compounds 1 to 4 so as to determine the absorbance of the reaction liquid before and after incubation according to a similar procedure to the above-mentioned one. In addition, as a control, a reaction liquid (or a control reaction liquid) wherein no sample solution was contained was prepared so as to determine the absorbance of the reaction liquid before and after incubation according to a similar procedure to the above-mentioned one. The antioxidant activity (%) of each of the materials was calculated using the following calculation formula 2. Incidentally, each of values shown in Table 1 is the average value and standard deviation of values obtained from three runs. (Antioxidant Activity)=[{(Fading Rate of Control)−(Fading Rate of Sample Solution)}/(Fading Rate of Control)]×100 Calculation Formula 2
It should be noted that in the calculation formula 2, “Fading Rate of Control” is the natural logarithm of a value which is acquired by dividing the absorbance of the control reaction liquid before incubation by the absorbance of the control reaction liquid after incubation and further by dividing the resultant value by 60; and “Fading Rate of Sample Solution” is the natural logarithm of a value which is acquired by dividing the absorbance of the sample reaction liquid before incubation by the absorbance of the sample reaction liquid after incubation and further by dividing the resultant value by 60.

[2] = system: breast cancer cells (MCF-7); assay: Breast cancer cell proliferation-inhibition test; assay type: cell-based; details: 0.1 nM estradiol, Control 1 at 0 day = 1
Description: When breast cancer cells (MCF-7) are cultured, if estradiol (or 17β-estradiol) having a cell-proliferation accelerating action, is added thereto, the proliferation of breast cancer cells can be simply promoted in a short period. This phenomenon was utilized so as to examine the effect of each of Compounds 1 to 4 and the like on the proliferation inhibition of breast cancer cells. That is, first of all, each of Compounds 1 to 4 was diluted with dimethyl sulfoxide to prepare a sample solution. Thereafter, 2×10^3 of MCF-7 were inoculated in each well of a 96-well plate, and estradiol and the sample solution were added thereto after 4 hours. Estradiol was added to each compartment so that the final concentration of estradiol can be 0.1 nM, and the final concentration of the sample solution can be 0.2 μM, 2 μM, or 20 μM. After incubation for a predetermined period of time (three or five days), each of the media was replaced with a new medium, and an enzyme solution (Cell counting Kit-8: Wako) was added to the new medium in an amount of 10% of the new medium. After maintained the medium in an incubator at a temperature of 37° C. for two hours, the absorbance of the medium was determined at a wavelength of 450 nm (a reference wave length of 630 nm) by means of a spectrophotometer so as to quantify the number of living cells in each compartment.
As for the compartment whose incubation period is predetermined to be five days, on the third day of the incubation, the medium was replaced with a new medium, and thereafter, estradiol and a sample solution were added to the new medium, and the incubation was continued till fifth day. As for the compartment whose incubation period is predetermined to be 0 day, at four hours after the cells were inoculated, an enzyme solution was added to the medium. The medium was maintained in an incubator at a temperature of 37° C. for two hours, followed by determining the absorbance.
Instead of Compounds 1 to 4, eriodictyol was used to determine the absorbance according to a similar procedure to the above-mentioned one, and thus the number of living cells in each compartment was quantified. Furthermore, Control 1 to which neither estradiol nor a sample had been added was used to determine the absorbance according to a similar procedure to the above-mentioned one, and thus the number of living cells in each compartment was quantified, while Control 2 to which no sample had been added was used to determine the absorbance according to a similar procedure to the above-mentioned one, and thus the number of living cells in each compartment was quantified.
When it is assumed that the number of living cells of Control 1 as quantified after a zero-day incubation period is 1, the relative value of living cells as quantified in each of the runs mentioned above is shown in Table 2. Incidentally, each of values shown in Table 2 is the average value and standard deviation of values obtained from eight wells.

Row | SMILES | Radical Scavenging Activity (%) from DPPH Radical Scavenging Activity Test [1] [%] | Antioxidant Activity (%) from β-carotene Fading Test (β-carotene fading test) [%] | Relative Value of Living Cells ([2]; 0.2 μM sample, after 3-days incubation) | Relative Value of Living Cells ([2]; 0.2 μM sample, after 5-days incubation) | Relative Value of Living Cells ([2]; 0.2 μM sample, on 0-day incubation, mean ± SD of eight wells) | Relative Value of Living Cells ([2]; 2 μM sample, after 3-days incubation) | Relative Value of Living Cells ([2]; 2 μM sample, after 5-days incubation) | Relative Value of Living Cells ([2]; 2 μM sample, on 0-day incubation) | Relative Value of Living Cells ([2]; 20 μM sample, after 3-days incubation) | Relative Value of Living Cells ([2]; 20 μM sample, after 5-days incubation) | Relative Value of Living Cells ([2]; 20 μM sample, on 0-day incubation)
1 | O=C1C[C@@H](c2ccc(O)c(O)c2)Oc2cc(O)cc(O)c21 [Eriodictyol, eriodictyol, reference compound] | 68.82 ± 1.12 | 81.47 ± 2.48 | 2.88 ± 0.22 | 7.33 ± 0.60 | 0.96 ± 0.04 | 2.90 ± 0.13 | 7.16 ± 0.36 | 0.98 ± 0.07 | 2.54 ± 0.30 | 5.13 ± 0.62 | 1.01 ± 0.05
2 | Cc1c(C)c2c(c(C)c1O)CC[C@@](C)(CCC[C@H](C)CCC[C@H](C)CCCC(C)C)O2 [α-tocopherol, reference compound] | 58.87 ± 1.24 | 93.00 ± 0.73 | – | – | – | – | – | – | – | – | –
3 | Cc1cc(C(C)(C)C)c(O)c(C(C)(C)C)c1 [BHT, butylated hydroxytoluene, reference compound] | 28.51 ± 7.48 | 85.02 ± 1.89 | – | – | – | – | – | – | – | – | –
